pIC50: −log10 of the molar value.
Target: factor Xa (Bos taurus, UniProt P00743)
Assay: kinetic amidolytic
Format: biochemical

Chain of factor Xa (P00743 41-180): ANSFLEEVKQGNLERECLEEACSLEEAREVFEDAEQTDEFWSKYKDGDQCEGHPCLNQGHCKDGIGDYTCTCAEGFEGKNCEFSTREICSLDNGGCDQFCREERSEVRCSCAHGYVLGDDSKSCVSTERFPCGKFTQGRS
Chain of factor Xa (P00743 234-492): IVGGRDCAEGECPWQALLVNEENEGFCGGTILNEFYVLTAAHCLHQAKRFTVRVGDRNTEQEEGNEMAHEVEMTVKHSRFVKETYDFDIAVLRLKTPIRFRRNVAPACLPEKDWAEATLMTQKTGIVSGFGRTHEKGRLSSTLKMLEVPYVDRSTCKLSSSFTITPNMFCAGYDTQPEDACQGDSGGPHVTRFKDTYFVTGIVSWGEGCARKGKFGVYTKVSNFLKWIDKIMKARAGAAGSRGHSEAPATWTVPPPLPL

- pIC50: 5.54
SMILES: COc1ccc(NC(=O)c2ccc(C(=N)N(C)C)cc2)c(C(=O)Nc2ccc(Cl)cn2)c1 [Betrixaban]
